From ChEMBL document CHEMBL5465560, “Selectivity Literature for EUbOPEN Chemogenomic Library” (2024) come the findings set out here.

The target in assay [1] is Death-associated protein kinase 1 (Homo sapiens, UniProt P53355). As to the kind of experiment: Selectivity interaction (Kinase panel (DSF assay)) EUB0001558a DAPK1. For orientation: DSF heats the sample and reads unfolding from a dye or from intrinsic fluorescence.
The target of assay [2] is Wee1-like protein kinase 2 (Homo sapiens) (UniProt P0C1S8). Kind of assay: Selectivity interaction (Ambit KINOMEscan and KiNATiv profiling in Jurkat cells) EUB0000090b WEE2. It is filed as cell-based. To be noted: at 1 µM.
The target of assay [3] is T1, Inhibitor of nuclear factor kappa-B kinase subunit beta (Homo sapiens) (UniProt O14920).
T1 sequence (whole entry): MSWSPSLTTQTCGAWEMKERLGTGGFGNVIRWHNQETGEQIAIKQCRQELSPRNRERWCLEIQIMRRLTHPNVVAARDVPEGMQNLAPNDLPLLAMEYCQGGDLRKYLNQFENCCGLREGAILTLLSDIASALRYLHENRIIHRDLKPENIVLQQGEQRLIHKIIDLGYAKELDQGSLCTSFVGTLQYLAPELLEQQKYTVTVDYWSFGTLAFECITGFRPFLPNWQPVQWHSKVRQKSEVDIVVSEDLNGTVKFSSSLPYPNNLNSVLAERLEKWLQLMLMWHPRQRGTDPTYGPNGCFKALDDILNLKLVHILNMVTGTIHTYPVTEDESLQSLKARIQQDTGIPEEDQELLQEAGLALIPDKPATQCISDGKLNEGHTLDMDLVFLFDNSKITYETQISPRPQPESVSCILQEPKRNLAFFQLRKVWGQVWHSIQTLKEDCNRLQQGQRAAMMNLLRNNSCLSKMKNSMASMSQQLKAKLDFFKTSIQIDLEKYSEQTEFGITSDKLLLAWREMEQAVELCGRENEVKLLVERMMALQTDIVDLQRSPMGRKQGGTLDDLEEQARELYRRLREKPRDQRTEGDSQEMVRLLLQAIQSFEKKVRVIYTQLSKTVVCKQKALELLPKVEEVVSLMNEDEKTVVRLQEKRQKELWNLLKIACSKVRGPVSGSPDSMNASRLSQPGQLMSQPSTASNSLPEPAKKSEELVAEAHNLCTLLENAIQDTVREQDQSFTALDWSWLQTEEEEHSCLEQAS
Kind of assay: Selectivity interaction (KinomeScan (DiscoverX)) EUB0001079a IKBKB. To be noted: at 1 µM.

Assay [4] deals with Tyrosine-protein kinase Fgr (Homo sapiens) (UniProt P09769). Kind of assay: Selectivity interaction (Millipore kinase profiler) EUB0000124b FGR. To be noted: at 10 µM.
Chain of Tyrosine-protein kinase Fgr (Homo sapiens) (P09769 2-529 limits assumed): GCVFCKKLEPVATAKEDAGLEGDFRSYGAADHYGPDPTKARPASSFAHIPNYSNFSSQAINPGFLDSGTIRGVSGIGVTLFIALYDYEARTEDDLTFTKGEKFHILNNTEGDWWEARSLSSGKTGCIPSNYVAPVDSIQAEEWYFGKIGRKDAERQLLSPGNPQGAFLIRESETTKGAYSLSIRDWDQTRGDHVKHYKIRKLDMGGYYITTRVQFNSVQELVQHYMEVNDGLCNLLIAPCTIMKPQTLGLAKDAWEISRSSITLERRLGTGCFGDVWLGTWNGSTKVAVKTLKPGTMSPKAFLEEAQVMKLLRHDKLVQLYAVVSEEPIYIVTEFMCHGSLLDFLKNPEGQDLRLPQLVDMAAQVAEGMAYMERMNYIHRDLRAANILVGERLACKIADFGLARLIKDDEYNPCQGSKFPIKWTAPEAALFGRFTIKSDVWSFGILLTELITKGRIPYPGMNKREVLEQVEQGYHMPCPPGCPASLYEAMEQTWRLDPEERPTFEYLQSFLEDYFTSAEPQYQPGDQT
The target of assay [5] is Protein polybromo-1 (Homo sapiens) (UniProt Q86U86). As to the kind of experiment: Selectivity interaction (Bromodomain panel (DSF asssay)) EUB0000270b PBRM1.
Assay [6] addresses Mitogen-activated protein kinase 1 (Homo sapiens, UniProt P28482). Kind of assay: Selectivity interaction (KinomeScan (DiscoverX)) EUB0000045b MAPK1.
The target in assay [7] is Tyrosine-protein kinase FRK (Homo sapiens) (UniProt P42685). As to the kind of experiment: Selectivity interaction (KinomeScan (DiscoverX)) EUB0000666a FRK. The conditions noted are these: at 10 µM.
Chain of Tyrosine-protein kinase FRK (Homo sapiens) (P42685 whole entry): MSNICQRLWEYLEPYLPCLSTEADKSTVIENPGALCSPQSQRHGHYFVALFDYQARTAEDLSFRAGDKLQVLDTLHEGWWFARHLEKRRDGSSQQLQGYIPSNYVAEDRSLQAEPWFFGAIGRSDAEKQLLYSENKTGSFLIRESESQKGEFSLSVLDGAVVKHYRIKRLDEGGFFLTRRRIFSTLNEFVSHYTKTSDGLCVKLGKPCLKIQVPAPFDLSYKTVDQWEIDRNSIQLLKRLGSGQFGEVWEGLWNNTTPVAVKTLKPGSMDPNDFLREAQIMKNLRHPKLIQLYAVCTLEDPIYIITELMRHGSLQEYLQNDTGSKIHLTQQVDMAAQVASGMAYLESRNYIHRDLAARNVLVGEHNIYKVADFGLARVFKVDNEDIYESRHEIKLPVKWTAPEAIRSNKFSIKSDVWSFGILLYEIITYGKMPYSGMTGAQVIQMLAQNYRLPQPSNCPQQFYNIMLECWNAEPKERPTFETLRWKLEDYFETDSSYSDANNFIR
Assay [8] deals with Phosphatidylinositol 4-kinase type 2-beta (Homo sapiens) (UniProt Q8TCG2). Kind of assay: Selectivity interaction (Adapta Assay) EUB0001632a PI4K2B. To be noted: at 10 µM.
The target of assay [9] is Polycomb protein SUZ12 (Homo sapiens) (UniProt Q15022). To be noted: at 1 µM.
Chain of Polycomb protein SUZ12 (Homo sapiens) (Q15022 whole entry): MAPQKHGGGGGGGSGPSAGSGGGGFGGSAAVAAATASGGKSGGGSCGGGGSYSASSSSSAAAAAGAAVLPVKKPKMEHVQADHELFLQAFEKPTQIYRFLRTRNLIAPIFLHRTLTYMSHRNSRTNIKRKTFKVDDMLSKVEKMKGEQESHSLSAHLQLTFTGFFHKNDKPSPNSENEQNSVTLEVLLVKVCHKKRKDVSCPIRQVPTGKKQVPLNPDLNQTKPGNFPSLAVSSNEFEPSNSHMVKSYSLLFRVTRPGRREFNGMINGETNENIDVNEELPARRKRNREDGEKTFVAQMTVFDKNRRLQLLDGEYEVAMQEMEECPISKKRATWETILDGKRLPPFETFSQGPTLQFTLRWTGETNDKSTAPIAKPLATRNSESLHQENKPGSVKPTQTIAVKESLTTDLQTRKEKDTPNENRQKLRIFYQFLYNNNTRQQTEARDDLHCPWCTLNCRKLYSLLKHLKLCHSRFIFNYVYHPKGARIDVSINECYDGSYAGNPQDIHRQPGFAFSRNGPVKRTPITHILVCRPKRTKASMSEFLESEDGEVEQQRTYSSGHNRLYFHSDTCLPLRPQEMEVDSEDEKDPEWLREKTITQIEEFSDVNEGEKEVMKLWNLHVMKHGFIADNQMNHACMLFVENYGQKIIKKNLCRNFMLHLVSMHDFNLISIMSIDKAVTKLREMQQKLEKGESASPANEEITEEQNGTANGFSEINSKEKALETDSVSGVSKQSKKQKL
For assay [10], the target named is SRSF protein kinase 2 (Homo sapiens) (UniProt P78362). As to the kind of experiment: Selectivity interaction (SelectScreen profiling (Invitrogen)) EUB0000607a SRPK2. To be noted: at 2 µM.
Assay [11] concerns the target Phosphatidylinositol 4-kinase beta (Homo sapiens, UniProt Q9UBF8). Kind of assay: Selectivity interaction (Kinase panel (Invitrogen)) EUB0000639a PI4KB. To be noted: at 200 nM.
For assay [12], the target named is Serine/threonine-protein kinase WNK2 (Homo sapiens) (UniProt Q9Y3S1). Kind of assay: Selectivity interaction (ActivX KiNativ screen (kinase selectivity in THP-1 cell lysates)) EUB0000639a WNK2. To be noted: lysate, at 0.2 µM. It is filed as subcellular.
For assay [13], the target named is T2, Dual specificity mitogen-activated protein kinase kinase 6 (Homo sapiens) (UniProt P52564).
T2 sequence (whole entry): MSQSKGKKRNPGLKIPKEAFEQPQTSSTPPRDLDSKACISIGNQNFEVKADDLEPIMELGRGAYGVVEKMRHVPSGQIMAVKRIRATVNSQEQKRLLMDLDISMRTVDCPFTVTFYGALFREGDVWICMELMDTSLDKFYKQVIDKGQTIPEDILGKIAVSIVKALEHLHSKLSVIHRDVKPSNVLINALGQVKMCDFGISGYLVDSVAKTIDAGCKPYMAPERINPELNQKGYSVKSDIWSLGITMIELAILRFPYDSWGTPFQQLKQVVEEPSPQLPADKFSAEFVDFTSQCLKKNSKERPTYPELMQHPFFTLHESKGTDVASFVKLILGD
As to the kind of experiment: Selectivity interaction (KinomeScan (DiscoverX)) EUB0000229b MAP2K6. To be noted: at 10 µM.

Assay [14] has as its target T3, Eukaryotic elongation factor 2 kinase (Homo sapiens) (UniProt O00418).
T3 sequence (whole entry): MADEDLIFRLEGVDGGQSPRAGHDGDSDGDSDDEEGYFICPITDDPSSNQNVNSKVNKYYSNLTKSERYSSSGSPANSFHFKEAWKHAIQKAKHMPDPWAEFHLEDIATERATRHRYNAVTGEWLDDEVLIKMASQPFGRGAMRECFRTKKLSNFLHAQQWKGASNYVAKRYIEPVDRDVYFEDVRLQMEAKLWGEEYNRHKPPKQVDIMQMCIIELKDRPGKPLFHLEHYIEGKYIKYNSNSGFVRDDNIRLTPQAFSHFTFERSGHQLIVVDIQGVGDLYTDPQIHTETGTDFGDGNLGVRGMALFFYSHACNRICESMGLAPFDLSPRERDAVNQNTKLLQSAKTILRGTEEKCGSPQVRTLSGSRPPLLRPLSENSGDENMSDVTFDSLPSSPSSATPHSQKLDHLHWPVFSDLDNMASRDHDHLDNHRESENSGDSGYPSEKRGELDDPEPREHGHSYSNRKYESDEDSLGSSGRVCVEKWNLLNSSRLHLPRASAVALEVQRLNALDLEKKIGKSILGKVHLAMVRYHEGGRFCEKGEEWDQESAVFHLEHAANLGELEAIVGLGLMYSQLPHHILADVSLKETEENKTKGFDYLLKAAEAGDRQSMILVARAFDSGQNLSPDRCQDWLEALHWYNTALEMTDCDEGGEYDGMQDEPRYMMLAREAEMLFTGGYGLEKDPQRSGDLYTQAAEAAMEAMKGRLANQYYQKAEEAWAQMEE
Kind of assay: Selectivity interaction (Kinase panel (literature)) EUB0001199aCl EEF2K. The conditions noted are these: at 1 µM.

The target of assay [15] is Ribosomal protein S6 kinase alpha-5 (Homo sapiens) (UniProt O75582). Kind of assay: Selectivity interaction (Kinase panel (KiNativ target engagement assay in Jurkat cells)) EUB0001635a RPS6KA5. It counts as cell-based. The conditions noted are these: Selectivity number of off-targets 0.0, Selectivity number of targets 233.0, Source Knowledge https://www.sciencedirect.com/science/article/pii/S2451945619300674?via%3Dihub, at 1 µM.
Chain of Ribosomal protein S6 kinase alpha-5 (Homo sapiens) (O75582 whole entry, looked up): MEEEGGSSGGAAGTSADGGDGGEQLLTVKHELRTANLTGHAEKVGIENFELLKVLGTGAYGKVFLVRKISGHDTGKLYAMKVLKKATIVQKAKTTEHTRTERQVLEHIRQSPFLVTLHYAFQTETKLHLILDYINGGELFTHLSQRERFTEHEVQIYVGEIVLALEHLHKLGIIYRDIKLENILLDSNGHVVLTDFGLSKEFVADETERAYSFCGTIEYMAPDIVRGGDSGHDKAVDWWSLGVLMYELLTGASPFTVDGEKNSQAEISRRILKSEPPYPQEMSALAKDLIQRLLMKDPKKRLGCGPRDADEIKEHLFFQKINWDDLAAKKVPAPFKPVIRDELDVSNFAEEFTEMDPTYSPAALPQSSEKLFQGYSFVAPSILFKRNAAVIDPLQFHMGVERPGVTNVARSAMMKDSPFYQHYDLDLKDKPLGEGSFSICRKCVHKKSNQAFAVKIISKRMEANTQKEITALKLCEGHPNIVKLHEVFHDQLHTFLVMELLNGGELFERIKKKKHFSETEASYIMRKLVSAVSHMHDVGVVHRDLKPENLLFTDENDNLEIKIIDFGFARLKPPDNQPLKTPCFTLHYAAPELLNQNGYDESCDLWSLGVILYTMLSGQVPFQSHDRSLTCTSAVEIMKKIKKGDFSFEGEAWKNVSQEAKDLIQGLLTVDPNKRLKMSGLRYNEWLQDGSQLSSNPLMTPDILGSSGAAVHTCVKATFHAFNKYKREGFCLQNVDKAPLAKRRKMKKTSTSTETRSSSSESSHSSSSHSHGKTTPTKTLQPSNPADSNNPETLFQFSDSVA

The test system of assay [16] is Epidermal growth factor receptor (Homo sapiens), P00533 [UNDEFINED MUTATION]. Kind of assay: Selectivity interaction (KinomeScan (DiscoverX)) EUB0000618a EGFR. To be noted: at 10 µM.
Chain of Epidermal growth factor receptor (Homo sapiens), P00533 [UNDEFINED MUTATION] (P00533 whole entry, looked up, change not shown): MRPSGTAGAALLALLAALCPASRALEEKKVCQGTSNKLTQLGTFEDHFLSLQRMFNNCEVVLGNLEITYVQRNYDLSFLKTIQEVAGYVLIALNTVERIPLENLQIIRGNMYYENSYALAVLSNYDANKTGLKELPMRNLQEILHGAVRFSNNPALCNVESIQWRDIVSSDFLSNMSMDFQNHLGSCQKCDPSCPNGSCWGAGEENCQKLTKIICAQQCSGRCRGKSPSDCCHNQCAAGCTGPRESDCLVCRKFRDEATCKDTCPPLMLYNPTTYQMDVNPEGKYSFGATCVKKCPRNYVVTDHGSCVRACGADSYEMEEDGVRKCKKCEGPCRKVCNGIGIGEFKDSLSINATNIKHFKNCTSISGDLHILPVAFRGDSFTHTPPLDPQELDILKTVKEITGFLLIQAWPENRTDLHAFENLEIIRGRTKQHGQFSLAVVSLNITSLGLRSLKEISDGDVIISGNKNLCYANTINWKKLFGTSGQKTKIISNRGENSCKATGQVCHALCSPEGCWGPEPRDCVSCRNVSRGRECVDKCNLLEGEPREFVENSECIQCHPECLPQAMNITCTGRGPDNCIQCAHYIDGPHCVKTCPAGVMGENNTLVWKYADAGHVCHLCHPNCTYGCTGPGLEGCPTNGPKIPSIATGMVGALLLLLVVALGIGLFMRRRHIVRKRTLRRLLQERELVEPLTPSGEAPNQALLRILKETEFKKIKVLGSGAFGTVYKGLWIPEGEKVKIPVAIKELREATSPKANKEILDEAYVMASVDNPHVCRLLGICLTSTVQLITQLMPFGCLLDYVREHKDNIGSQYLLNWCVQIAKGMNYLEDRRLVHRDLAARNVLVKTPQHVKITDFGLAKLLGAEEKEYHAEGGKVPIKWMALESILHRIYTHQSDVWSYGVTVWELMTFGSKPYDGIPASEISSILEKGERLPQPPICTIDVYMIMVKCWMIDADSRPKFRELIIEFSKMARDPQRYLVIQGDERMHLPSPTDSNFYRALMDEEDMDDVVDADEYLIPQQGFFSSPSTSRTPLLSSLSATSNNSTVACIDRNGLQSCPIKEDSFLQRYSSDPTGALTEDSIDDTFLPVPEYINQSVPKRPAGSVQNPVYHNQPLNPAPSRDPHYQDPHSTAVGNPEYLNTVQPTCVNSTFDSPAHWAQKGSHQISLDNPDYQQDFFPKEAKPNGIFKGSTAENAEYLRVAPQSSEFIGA

SMILES strings stand for the structures.

Chain of Mitogen-activated protein kinase 1 (P28482 whole entry): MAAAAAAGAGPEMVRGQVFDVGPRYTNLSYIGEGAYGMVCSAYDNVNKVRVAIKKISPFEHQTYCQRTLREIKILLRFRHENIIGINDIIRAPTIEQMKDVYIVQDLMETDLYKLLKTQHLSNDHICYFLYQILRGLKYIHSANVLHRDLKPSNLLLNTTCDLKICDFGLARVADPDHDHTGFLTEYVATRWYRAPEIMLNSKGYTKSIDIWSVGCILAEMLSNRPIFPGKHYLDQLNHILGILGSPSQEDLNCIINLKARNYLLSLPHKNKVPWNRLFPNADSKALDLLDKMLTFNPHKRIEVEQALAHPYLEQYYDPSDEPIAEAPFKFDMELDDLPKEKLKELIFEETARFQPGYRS
Chain of Phosphatidylinositol 4-kinase beta (Q9UBF8 2-816 limits assumed): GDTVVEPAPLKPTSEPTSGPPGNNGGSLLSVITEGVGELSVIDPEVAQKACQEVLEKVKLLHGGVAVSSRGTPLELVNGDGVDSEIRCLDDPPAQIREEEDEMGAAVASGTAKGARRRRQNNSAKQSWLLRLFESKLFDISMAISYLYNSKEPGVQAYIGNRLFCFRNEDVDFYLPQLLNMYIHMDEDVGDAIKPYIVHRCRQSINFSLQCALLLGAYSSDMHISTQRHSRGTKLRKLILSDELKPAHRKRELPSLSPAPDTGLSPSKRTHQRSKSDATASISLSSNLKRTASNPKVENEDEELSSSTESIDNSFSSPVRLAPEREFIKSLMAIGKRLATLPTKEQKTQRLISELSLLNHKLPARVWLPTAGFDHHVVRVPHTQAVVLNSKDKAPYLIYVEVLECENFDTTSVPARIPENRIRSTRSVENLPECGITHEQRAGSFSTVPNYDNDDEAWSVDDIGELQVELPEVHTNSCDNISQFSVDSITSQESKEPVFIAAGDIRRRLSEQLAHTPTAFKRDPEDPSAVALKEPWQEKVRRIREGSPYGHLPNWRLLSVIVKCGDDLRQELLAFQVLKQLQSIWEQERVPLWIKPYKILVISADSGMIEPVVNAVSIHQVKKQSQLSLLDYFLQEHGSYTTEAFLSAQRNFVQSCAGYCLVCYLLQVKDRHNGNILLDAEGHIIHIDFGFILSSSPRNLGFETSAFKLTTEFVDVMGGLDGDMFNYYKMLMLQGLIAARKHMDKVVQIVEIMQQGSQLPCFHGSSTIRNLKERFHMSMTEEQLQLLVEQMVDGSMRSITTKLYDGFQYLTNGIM

The compound `CC(C)(O)[C@H](F)CN1Cc2cc(NC(=O)c3cnn4cccnc34)c(N3CCOCC3)cc2C1=O` showed a dTM in assay [1] of 0.1 K.

Compound `CN(C)C/C=C/C(=O)Nc1ccc(C(=O)N2CCCC(Nc3ncc(Cl)c(-c4c[nH]c5ccccc45)n3)C2)cc1` (configuration not stated) returned a % of control in [2] of 97%.

In the case of `Nc1cnc(N2CCc3cc(S(=O)(=O)Nc4c(F)cc(Cl)cc4F)cc(N4CCCC4=O)c32)nc1` [TP-020n], the % of control in assay [3] was determined as 96%.

Compound `CC(=O)Nc1cccc(-n2c(=O)n(C3CC3)c(=O)c3c(Nc4ccc(I)cc4F)n(C)c(=O)c(C)c32)c1` showed a % of control in assay [4] of 86%.

In turn, `Cc1cc(CN)cc(C)c1-c1ncn(C)c1-c1cncn1C` had a dTM in assay [5] of -1.91 K.

Take `C=CC(=O)Nc1cc(-n2c(=O)ccc3cnc4ccc(-c5ccc(NS(C)(=O)=O)cc5)cc4c32)ccc1C`: the results for the % of control in assay [6] (at 1 µM) and in [6] (at 10 µM) were 94% and 100%, respectively.

As for `O=C(NOC[C@H](O)CO)c1ccc(F)c(F)c1Nc1ccc(I)cc1F`, the % of control in [7] worked out at 60%.

Regarding `Cn1cc(-n2cnc3c(NCc4nc5cc(Cl)c(Cl)cc5[nH]4)nc(N4CCOCC4)nc32)cn1`, the % of inhibition in assay [8] is -1.89%.

As to `CNCCN1CCC(c2cc(CN(C)C(=O)c3cccc(Oc4ccccc4)c3)ccn2)CC1`, the % activity in assay [9] is greater than 90%.

Regarding `CNC(=O)Nc1ccc(-c2nc(N3CC4CCC(C3)O4)c3cnn(C4CCC5(CC4)OCCO5)c3n2)cc1`, the % of inhibition in assay [10] came to 1%.

Turning to `CC[C@@H]1[C@H](F)C(=O)N[C@@H]1COc1nccc2cc(C(N)=O)c(OC)cc12` [ZIMLOVISERTIB], the values for the % of inhibition in assay [11] and in assay [12] were -0.901% and -12%, respectively.

In assay [13], `COc1cc(N(C)c2ccnc3ccc(C(F)(F)F)cc23)cc(OC)c1OC` registered a % binding of 75%.

With `CN1Cc2nccc(-c3cn(C)nc3-c3ccc(F)cc3)c2C1=O`, the % of inhibition in assay [14] was -5%.

For the compound `C=CC(=O)Nc1ccc(C(=O)Nc2[nH]nc3c2CN(C(=O)N[C@H](CN(C)C)c2ccccc2)C3(C)C)cc1`, the % of engagement in [15] was 5.7%.

In turn, `O[C@H]1CC[C@H](Nc2ncc3nc(Nc4c(F)cc(F)cc4F)n([C@H]4CCOC4)c3n2)CC1` gave a % of control in [16] of 5.7%.
